Test results published in patent publication US7057036B2, “Pyrrolothiazine and pyrrolothiazepine compounds having serotonin-2 receptor antagonistic and alpha-1-blocking action” (Daiichi Suntory Pharma Co., Ltd., priority 1997, dated 2006).

Assays:
α1 receptors = experiment: Anti-α1 action: norepinephrine-induced tonic contraction of isolated thoracic aorta; details: tonic contraction by 10^−5 M norepinephrine taken as 100%, guinea pig thoracic aorta
Method: The thoracic aorta of each Hartley male guinea pig (body weight: 300–500 g) was excised. A preparation cut in a helical form was suspended under 1 g load in a Magnus cylinder filled with the Tyrode solution which had been aerated with a gas mixture of 95% O2 and 5% CO2 and maintained at 37° C. Using an isometric transducer (“TB-612J”, manufactured by Nihon Kohden Corporation) and a pressure preamplifier (“AP-620G”, manufactured by Nihon Kohden Corporation), variations in tension were measured. The isometric tensions were recorded on a thermal pen-writing recorder (“WT-647G”, manufactured by Nihon Kohden Corporation). Taking the tonic contraction induced by 10^−5 M norepinephrine (NE) as 100%, the percent contractions upon addition of each test drug at 10^−8 M and 10^−7 M were determined and recorded as α1 action.

serotonin-2 receptors = experiment: Anti-serotonin (5-HT) action: 5-HT-induced contraction of isolated superior mesenteric artery; details: contraction by 10^−5 M 5-HT taken as 100%, guinea pig superior mesenteric artery
Method: (1) Anti-Serotonin (5-HT) Action
A preparation cut in a helical form was suspended under resting-tension of 0.3 g in a Magnus cylinder filled with the Tyrode solution which had been aerated with a gas mixture of 95% O2 and 5% CO2 and maintained at 37° C. Using an isometric transducer (“UL-10”, manufactured by SHINKOH K. K.) and a pressure preamplifier (“DSA-605A”, manufactured by SHINKOH K. K.), variations in tension were measured. The isometric tensions were recorded on a pen-writing recorder (“VP-6537A”, manufactured by NATIONAL K. K.). Taking the contraction induced by 10^−5 M serotonin (5-HT) as 100%, the percent contractions by 10^−5 M 5-HT in the presence of each test drug at 10^−7 M and 10^−6 M were determined as anti-5-HT action.

SMILES | Anti α1 action (% of Control) (α1 receptors; test drug 10^−7 M) | Anti α1 action (% of Control) (α1 receptors; test drug 10^−8 M) | Anti 5-HT action (% of Control) (serotonin-2 receptors; test drug 10^−6 M) | Anti 5-HT action (% of Control) (serotonin-2 receptors; test drug 10^−7 M)
Cn1ccc2c1C(=O)CCN(CCCN1CCC(C(=O)c3ccc(F)cc3)CC1)S2(=O)=O [Compound 22, 2-[3-[4-(4-fluorobenzoyl)piperidino]propyl]-6-methyl-3,4,5,6-tetrahydro-2H-pyrrolo[2,3-f][1,2]thiazepin-5-one 1,1-dioxide] | 64.9 % of Control | 91.2 % of Control | 21.3 % of Control | 75.3 % of Control
Cn1ccc2c1C(=NO)CN(CCCN1CCN(c3ccc(F)cc3)CC1)S2(=O)=O [Compound 25, 2-[3-[4-(4-fluorophenyl)piperazin-1-yl]propyl]-4-hydroxyimino-5-methyl-2,3,4,5-tetrahydropyrrolo[2,3-e][1,2]thiazine 1,1-dioxide] | 24.1 % of Control | 65.3 % of Control | 19.6 % of Control | 69.8 % of Control
Cn1ccc2c1C(=NO)CN(CCCN1CCC(C(=O)c3ccc(F)cc3)CC1)S2(=O)=O [Compound 26, 2-[3-[4-(4-fluorobenzoyl)piperidino]propyl]-4-hydroxyimino-5-methyl-2,3,4,5-tetrahydropyrrolo[2,3-e][1,2]thiazine 1,1-dioxide] | 73.1 % of Control | 99.6 % of Control | 18.2 % of Control | 54.6 % of Control
Cn1ccc2c1C(=NO)CCN(CCCN1CCN(c3ccc(F)cc3)CC1)S2(=O)=O [Compound 27, 2-[3-[4-(4-fluorophenyl)piperazin-1-yl]propyl]-5-hydroxyimino-6-methyl-3,4,5,6-tetrahydro-2H-pyrrolo[2,3-f][1,2]thiazepine 1,1-dioxide] | 53.0 % of Control | 91.2 % of Control | 22.7 % of Control | 76.2 % of Control
Cn1ccc2c1C(O)CCN(CCCN1CCN(c3ccc(F)cc3)CC1)S2(=O)=O (centres unmarked) [Compound 30, 2-[3-[4-(4-fluorophenyl)piperazin-1-yl]propyl]-5-hydroxy-6-methyl-3,4,5,6-tetrahydro-2H-pyrrolo[2,3-f][1,2]thiazepine 1,1-dioxide] | 88.0 % of Control | 102.3 % of Control | 37.2 % of Control | 83.5 % of Control
